# According to US10538516B2, “Oxadiazole derivative and pharmaceutical containing same” (National Center for Geriatrics and Gerontology, priority 2015, dated 2020):
# Like-named read-outs stand apart in the source and are kept apart here.
# Molecular target: T1, GAβ-dependent amyloid fibril formation (Human Aβ1-40 + GM1-containing liposome) (Homo sapiens, UniProt P05067)
# T1 construct: Human Aβ1-40 (cat. #4307-v, prepared by Peptide Institute); purchased Peptide Institute 4307-v
# Experiment: Thioflavin T (ThT) assay of GAβ-dependent amyloid fibril formation (Aβ1-40 with GM1-containing liposome)
# Type: biochemical
# Procedure: <3. Evaluation of the Compounds Based on the Inhibitory Activity Against Amyloid Fibril Formation in Thioflabin T (ThT) Assay>
# Inhibitory activity against GAβ-dependent amyloid fibril formation of the above compounds 1 to 133 and 142 to 267 were evaluated in ThT assay.
# (1) Preparation of Aβ Solution
# Human Aβ1-40 (cat. #4307-v, prepared by Peptide Institute) was dissolved in a 0.02% ammonia solution (400 μM), and the mixture was treated in an ultracentrifuge (S110AT rotor, Hitachi) at 100,000 rpm for 3 hours. Approximately two-thirds of the upper layer of the supernatant was recovered and protein concentration was measured. The Aβ solution was aliquoted and stored at −80° C. until use, was melted immediately before use, and was diluted to 75 μM using phosphate buffer (PBS: cat. #10010, manufactured by Life Technologies).
# (2) Preparation of GM1-Containing Liposome
# Using a mixed solution of chloroform/methanol (1:1) as a solvent, a mixed solution of 100 mM each of cholesterol and sphingomyelin (both manufactured by Sigma-Aldrich) was prepared. To this mixed solution, GM 1 (cat. #1061, manufactured by Matreya Co.) was dissolved to make a solution of 50 mM concentration. This lipid mixed solution was aliquoted into glass test tubes and stored at −20° C. until use, was melted before use, was mixed with chloroform/methanol mixture (1:1) and mixed, and then the solvent was removed by applying nitrogen gas to the suspension. The dried lipid mixture was resuspended in PBS to be a GM1 concentration of 2.5 mM, and frozen and thawed 5 times with liquid nitrogen. The lipid suspension was centrifuged at 15,000 rpm for 10 minutes and the precipitate was resuspended in PBS to be a GM1 concentration of 2.5 mM. Using an ultrasonic crusher (XL-2000, MISONIX Co., Ltd.) equipped with a microchip, ultrasonic treatment was repeated on ice for 10 seconds until the suspension became transparent, and GM1-containing liposome was prepared. Immediately prior to use, PBS was added and diluted to a GM 1 concentration of 75 μM.
# (3) Preparation of Compound Solution
# Compounds 1 to 133 and 142 to 267 were prepared as 10 mM and 2 mM solution in DMSO, respectively. And each solution was diluted to 75 μM or 15 μM with PBS immediately prior to use.
# (4) GAβ-Dependent Amyloid Fibril Formation
# To a 96-well microplate, 5 μl each of the 75 μM Aβ solution prepared above (1), the compound solution prepared in (3) or 0.75% DMSO was mixed and incubated at room temperature for 10 minutes. Then, 5 μl each of 750 μM GM1-containing liposome prepared in (2) was added to each well and incubated at 37° C. for 18 hours.
# ThT (manufactured by Sigma-Aldrich) was adjusted to 5 μM using 50 mM glycine-NaOH buffer (pH 8.5). Immediately before measurement, 10 μl from each well of (4) was transferred to a 96-well black plate. 50 μl of 5 μM ThT solution was added from each injector to each well using a multi-plate reader (ARVO-HTS, manufactured by Perkin Elmer), and then the optimal fluorescence of ThT bound to amyloid fiber (excitation wavelength 430 nm, fluorescence wavelength 490 nm) was measured.
# The fluorescence intensity of ThT indicates the degree of amyloid fibrils formation. By calculating the ratio of the ThT fluorescence intensity between addition of the compound and without addition of the compound, the inhibition rate against amyloid fibril formation by the compound was calculated.
# [1] = inhibition rate against amyloid fibril formation, final concentration of the compound 25 μM, read-out: Inhibitory activity ABC evaluation
# [2] = @25 μM, read-out: ThT Inhibitory activity (% inhibition)
# T1 sequence (P05067 672-711 limits assumed): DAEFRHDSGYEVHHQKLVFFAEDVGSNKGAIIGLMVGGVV
SMILES,inhibition at 25 µM [1] [%],other results
"O=C(c1ccc(Cl)cc1)N1C[C@H](O)C[C@H]1c1nc(-c2ccc(OC(F)(F)F)cc2)no1 [Compound 34, (3R,5S)-1-(4-chlorobenzoyl)-5-{3-[4-(trifluoromethoxy)phenyl]-1,2,4-oxadiazol-5-yl}pyrrolidin-3-ol]",40 to 80,–
"O=C(NC1(c2nc(-c3ccc(OC(F)(F)F)cc3)no2)CCCC1)c1cccc(Cl)c1 [Compound 35, 3-chloro-N-(1-[3-{4-(trifluoromethoxy)phenyl}-1,2,4-oxadiazol-5-yl]cyclopentyl) benzamide]",< 40,–
"O=C(Nc1ccc(Cl)cc1)NC1(c2nc(-c3ccc(OC(F)(F)F)cc3)no2)CCCC1 [Compound 36, 1-(4-chlorophenyl)-3-(1-[3-{4-(trifluoromethoxy)phenyl}-1,2,4-oxadiazol-5-yl]cyclopentyl)urea]",< 40,–
"NC(Cc1c[nH]cn1)c1nc(-c2ccc(OC(F)(F)F)cc2)no1 (stereo not shown) [Compound 37, 2-(1H-imidazol-4-yl)-1-[3-{4-(trifluoromethoxy)phenyl}-1,2,4-oxadiazol-5-yl]ethan-1-amine]",< 40,–
"NC(Cc1ccc(O)cc1)c1nc(-c2ccc(OC(F)(F)F)cc2)no1 (stereo not shown) [Compound 38, 4-(2-amino-2-[3-{4-(trifluoromethoxy)phenyl}-1,2,4-oxadiazol-5-yl]ethyl)phenol]",40 to 80,–
"O=C(N[C@@H](CO)c1nc(-c2ccc(OC(F)(F)F)cc2)no1)c1ccc(Cl)cc1 [Compound 39, (S)-4-chloro-N-(2-hydroxy-1-{3-[4-(trifluoromethoxy)phenyl]-1,2,4-oxadiazol-5-yl}ethyl)benzamide]",> 80,"inhibition at 25 µM [2]: 98%; inhibition at 25 µM (final concentration of the compound 25 μM, ratio of ThT fluorescence intensity with/without compound, 37° C. for 18 hours, read-out: inhibition rate against amyloid fibril formation (inhibitory activity on a scale of A to C)): > 80%"
"NC(Cc1c[nH]c2ccccc12)c1nc(-c2ccc3c(c2)OC(F)(F)O3)no1 (stereo not shown) [Compound 40, 1-{3-(2,2-difluorobenzo[d] [1,3]dioxol-5-yl)-1,2,4-oxadiazol-5-yl}-2-(1H-indol-3-yl)ethan-1-amine]",> 80,"inhibition at 5 µM (@5 μM, read-out: ThT Inhibitory activity (% inhibition)): 38%; inhibition at 25 µM [2]: 80%"
"O=C1CC(c2nc(-c3ccc(O)cc3)no2)CN1c1ccc(Cl)cc1 (stereo not shown) [Compound 41, 1-(4-chlorophenyl)-4-{3-(4-hydroxyphenyl)-1,2,4-oxadiazol-5-yl}pyrrolidin-2-one]",40 to 80,–
COc1ccc(-c2noc(C3CC(=O)N(c4ccc(Cl)cc4)C3)n2)cc1F (stereo not shown) [Compound 42],40 to 80,–
"O=C1CC(c2nc(-c3ccccc3)no2)CN1c1ccc(Cl)cc1 (stereo not shown) [Compound 43, 1-(4-chlorophenyl)-4-(3-phenyl-1,2,4-oxadiazol-5-yl) pyrrolidin-2-one]",40 to 80,–
"O=C1CC(c2nc(-c3ccncc3)no2)CN1c1ccc(Cl)cc1 (stereo not shown) [Compound 44, 1-(4-chlorophenyl)-4-{3-(pyridin-4-yl)-1,2,4-oxadiazol-5-yl} pyrrolidin-2-one]",< 40,–
"O=C(NC(CO)c1nc(-c2ccc(OC(F)(F)F)cc2)no1)c1c[nH]c2ccccc12 (stereo not shown) [Compound 46, N-(2-hydroxy-1-[3-{4-(trifluoro-methoxy)phenyl}-1,2,4-oxadiazol-5-yl]ethyl)-1H-indole-3-carboxamide]",40 to 80,–
"O=C(c1c[nH]c2ccccc12)N1C[C@H](O)C[C@H]1c1nc(-c2ccc(OC(F)(F)F)cc2)no1 [Compound 47, ((2S,4R)-4-hydroxy-2-[3-{4-(trifluoro-methoxy)phenyl}-1,2,4-oxadiazol-5-yl]pyrrolidin-1-yl)(1H-indol-3-yl)methanone]",< 40,–
"O=C1CC(c2nc(-c3ccc(OC(F)(F)F)cc3)no2)CN1c1ccc(Cl)nc1 (stereo not shown) [Compound 48, 1-(6-chloropyridin-3-yl)-4-[3-{4-(trifluoro-methoxy)phenyl}-1,2,4-oxadiazol-5-yl] pyrrolidin-2-one]",40 to 80,–
"O=C1CC(c2nc(-c3ccc(OC(F)(F)F)cc3)no2)CN1c1ccc(Cl)cn1 (stereo not shown) [Compound 49, 1-(5-chloropyridin-2-yl)-4-[3-{4-(trifluoro-methoxy)phenyl}-1,2,4-oxadiazol-5-yl] pyrrolidin-2-one]",40 to 80,–
"COc1ccc(CN2CC(c3nc(-c4ccc(OC(F)(F)F)cc4)no3)CC2=O)cc1 (stereo not shown) [Compound 50, 1-(4-methoxybenzyl)-4-[3-{4-(trifluoro-methoxy)phenyl}-1,2,4-oxadiazol-5-yl] pyrrolidin-2-one]",40 to 80,–

# The next lines start with results.
inhibition at 25 µM [1] [%],SMILES,other results
< 40,"O=C1CC(c2nc(-c3ccc(OC(F)(F)F)cc3)no2)CN1c1cncc(Cl)c1 (stereo not shown) [Compound 51, 1-(5-chloropyridin-3-yl)-4-[3-{4-(trifluoro-methoxy)phenyl}-1,2,4-oxadiazol-5-yl]pyrrolidin-2-one]",–
40 to 80,"O=C1CC(c2nc(-c3ccc(OC(F)F)cc3)no2)CN1c1ccc(Cl)cc1 (stereo not shown) [Compound 52, 1-(4-chlorophenyl)-4-[3-{4-(difluoro-methoxy)phenyl}-1,2,4-oxadiazol-5-yl]pyrrolidin-2-one]",–
40 to 80,"O=C1CC(c2nc(-c3ccc(OCF)cc3)no2)CN1c1ccc(Cl)cc1 (stereo not shown) [Compound 53, 1-(4-chlorophenyl)-4-[3-{4-(fluoromethoxy)phenyl}-1,2,4-oxadiazol-5-yl]pyrrolidin-2-one]",–
40 to 80,"COc1ccc(-c2noc(C3CC(=O)N(c4ccc(Cl)cc4)C3)n2)cn1 (stereo not shown) [Compound 54, 1-(4-chlorophenyl)-4-{3-(6-methoxy-pyridin-3-yl)-1,2,4-oxadiazol-5-yl}pyrrolidin-2-one]",–
40 to 80,"O=C(c1ccc(Cl)cc1)N1CCC[C@H]1c1nc(-c2ccc(OC(F)(F)F)cc2)no1 [Compound 55, (S)-(4-chlorophenyl) (2-[3-{4-(trifluoro-methoxy)phenyl)-1,2,4-oxadiazol-5-yl}pyrrolidin-1-yl)methanone]",–
< 40,"O=C(c1ccc(Cl)cc1)N1C[C@@H](O)C[C@H]1c1nc(-c2ccc(OC(F)(F)F)cc2)no1 [Compound 56, (4-chlorophenyl) ((2S,4S)-4-hydroxy-2-[3-{4-(trifluoro-methoxy)phenyl}-1,2,4-oxadiazol-5-yl]pyrrolidin-1-yl)methanone]",–
< 40,"O=C1C[C@@H](c2nc(-c3ccc(OC(F)(F)F)cc3)no2)N(C(=O)c2ccc(Cl)cc2)C1 [Compound 57, (S)-1-(4-chlorobenzoyl)-5-{3-[4-(trifluoromethoxy)phenyl]-1,2,4-oxadiazol-5-yl}pyrrolidin-3-one]",–
40 to 80,"O=C(c1cccc(Cl)c1)N1C[C@H](O)C[C@H]1c1nc(-c2ccc(OC(F)(F)F)cc2)no1 [Compound 58, (3-chlorophenyl) ((2S,4R)-4-hydroxy-2-[3-{4-(trifluoro-methoxy)phenyl}-1,2,4-oxadiazol-5-yl]pyrrolidin-1-yl)methanone]",–
< 40,"O=C1CC(c2nc(-c3ccc(Cl)cc3)no2)CN1c1ccc(Cl)cc1 (stereo not shown) [Compound 59, 1-(4-chlorophenyl)-4-{3-(4-chlorophenyl)-1,2,4-oxadiazol-5-yl}pyrrolidin-2-one]",–
< 40,"O=C(c1ccc(Cl)cn1)N1C[C@H](O)C[C@H]1c1nc(-c2ccc(OC(F)(F)F)cc2)no1 [Compound 60, (5-chloropyridin-2-yl)((2S,4R)-4-hydroxy-2-[3-{4-(trifluoro-methoxy)phenyl}-1,2,4-oxadiazol-5-yl]pyrrolidin-1-yl)methanone]",–
40 to 80,"O=C1CC(c2nc(-c3ccc(F)cc3)no2)CN1c1ccc(Cl)cc1 (stereo not shown) [Compound 61, 1-(4-chlorophenyl)-4-{3-(4-fluorophenyl)-1,2,4-oxadiazol-5-yl} pyrrolidin-2-one]",–
